Source: patent publication US11319322B2, “Substituted aryl ether compound, preparation method thereof, pharmaceutical composition and use thereof” (Xiamen University, priority 2017, dated 2022)

Legend:
KIF5B-RET-BaF3 = biological target: T1, KIF5B-RET-BaF3 (Homo sapiens, UniProt P07949); assay: Growth inhibition of KIF5B-RET-BaF3 cells stably transfected with kinase (MTS); assay type: cell-based; details: 48 h, read-out: KIF5B-RET (IC50/nM)
T1 construct: fused on or other part: P33176 (Kinesin-1 heavy chain)
Description: (§1) Growth inhibitory activity of compounds on cell lines stably transfected with kinase
(§2) The activity of compounds against kinase RET is evaluated by their effect of inhibiting growth of cell lines stably transfected with kinase CCDC6-RET-BaF3, KIF5B-RET-BaF3, and wild-type BaF3 (Proc. Natl. Acad. Sci. USA., 2006, 103, 3153-8.). The growth of the cell lines stably transfected with kinase CCDC6-RET-BaF3, KIF5B-RET-BaF3 depends on their kinase activity. If a compound can inhibit the activity of the kinase RET per se or the activity of the RET signaling pathway, the compound can inhibit the growth of BaF3 cells stably transfected with kinase. […] Therefore, a larger ratio between IC50 of a compound to wild-type BaF3 and IC50 of the compound to the cell lines stably transfected with kinase CCDC6-RET-BaF3, KIF5B-RET-BaF3 indicates better targeting.
(§3) The specific test method is given as follows:
(§4) 1) Medium: DMEM (Dulbecco's modified eagle medium) or RPMI 1640 (containing 10% fetal bovine serum, 100 μg/mL ampicillin, 100 μg/mL streptomycin).
(§5) 2) Reagents: MTS reaction solution (containing 2 mg/mL of MTS [3-(4,5-dimethylthiazol-2-yl)-5-(3-carboxymethoxyphenyl)-2-(4-sulfophenyl)-2H-tetrazolium, inner Salt]; 100 μg/mL PES (phenazine […])).
(§6) 3) Compound test: cells stably transfected with kinase (CCDC6-RET-BaF3, KIF5B-RET-BaF3) or wild-type BaF3 cells (2×10^4 cells/well) were incubated into a 96-well culture plate, the volume of cell culture fluid was 90 μL, and then 10 μL of the compound at each gradient concentration was added (the highest concentration was 10 μM, which was diluted stepwise by ⅓, and 8 concentration points were set in total; the system contained 0.1% DMSO (dimethyl sulfoxide)). The cell plate with uniformly mixed compound was cultured in a cell culture incubator (37° C.; 5% CO2) for 48 h, then 20 μL of MTS reaction solution was added, uniformly mixed and incubated in the cell culture incubator (37° C.; 5% CO2) for 1-4 hr, OD values at 490 nm were measured by a microplate reader (VARIOSKAN FLASH, Thermo). Three parallels were set in each group of experiments, with 0.1% (a final concentration) DMSO as a negative control, and a medium without cells or compounds as a blank control. The cell growth inhibition rate was calculated by the following formula: Cell growth inhibition rate %=1−(ODexperimental group−ODblank group)/(ODnegative group−ODblank group)×100%
(§7) 4) IC50 calculation: The semi-inhibitory concentration of the compound acting on cell growth was calculated using GradPad Prism 5 software according to the measured cell growth inhibition rate.

CCDC6-RET-BaF3 = biological target: T2, CCDC6-RET-BaF3 (Homo sapiens, UniProt P07949); assay: Growth inhibition of CCDC6-RET-BaF3 cells stably transfected with kinase (MTS); assay type: cell-based; details: 48 h, read-out: CCDC6-RET (IC50/nM)
T2 construct: fused on or other part: Q16204 (Coiled-coil domain-containing protein 6)
Description: as §1, §2, §3, §4, §5, §6, §7

T2 sequence (P07949 whole entry, change not shown, the tested form may be a part): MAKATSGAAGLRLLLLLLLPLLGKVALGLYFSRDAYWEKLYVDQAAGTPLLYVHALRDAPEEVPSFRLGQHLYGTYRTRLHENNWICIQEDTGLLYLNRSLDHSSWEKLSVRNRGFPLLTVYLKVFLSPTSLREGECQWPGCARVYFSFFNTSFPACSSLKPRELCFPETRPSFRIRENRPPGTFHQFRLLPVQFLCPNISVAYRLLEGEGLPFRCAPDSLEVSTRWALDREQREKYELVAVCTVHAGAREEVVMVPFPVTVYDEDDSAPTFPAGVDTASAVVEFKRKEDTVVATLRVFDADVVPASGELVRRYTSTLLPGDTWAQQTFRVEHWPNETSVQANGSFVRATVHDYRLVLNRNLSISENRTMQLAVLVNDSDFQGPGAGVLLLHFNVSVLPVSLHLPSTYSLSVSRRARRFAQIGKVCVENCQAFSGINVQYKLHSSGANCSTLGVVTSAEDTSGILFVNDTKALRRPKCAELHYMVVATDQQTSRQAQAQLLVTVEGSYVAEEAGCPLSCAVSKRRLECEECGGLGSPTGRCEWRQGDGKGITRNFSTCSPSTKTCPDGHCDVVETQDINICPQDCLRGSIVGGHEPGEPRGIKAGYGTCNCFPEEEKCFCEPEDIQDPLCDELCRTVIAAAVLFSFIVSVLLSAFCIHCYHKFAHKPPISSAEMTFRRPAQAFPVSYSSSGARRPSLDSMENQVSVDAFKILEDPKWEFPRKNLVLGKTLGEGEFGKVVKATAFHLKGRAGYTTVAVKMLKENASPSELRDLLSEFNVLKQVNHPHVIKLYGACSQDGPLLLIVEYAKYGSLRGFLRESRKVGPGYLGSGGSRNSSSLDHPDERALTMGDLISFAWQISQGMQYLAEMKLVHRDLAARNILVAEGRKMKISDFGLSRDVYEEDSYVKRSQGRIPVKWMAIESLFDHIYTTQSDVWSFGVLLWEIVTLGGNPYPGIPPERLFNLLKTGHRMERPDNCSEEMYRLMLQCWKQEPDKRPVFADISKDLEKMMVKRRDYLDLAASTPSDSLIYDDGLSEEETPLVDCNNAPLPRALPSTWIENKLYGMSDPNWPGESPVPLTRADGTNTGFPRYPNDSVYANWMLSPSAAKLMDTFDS
T1 sequence (P07949 whole entry, change not shown, the tested form may be a part): as above

SMILES	GI50 (KIF5B-RET-BaF3)	GI50 (CCDC6-RET-BaF3)
Cc1ccc(Oc2nc(-c3ccncc3)nc3c2ncn3C)cc1C(=O)Nc1cccc(C(F)(F)F)c1 [I-f-2]	8120 nM	4850 nM
Cc1ccc(C(=O)Nc2ccc(CN3CCN(C)CC3)c(C(F)(F)F)c2)cc1Oc1nc(-c2cccnc2)nc2c1ncn2C [I-m-2]	1300 nM	710 nM
Cc1ccc(C(=O)Nc2ccc(CN3CCN(C)CC3)c(C(F)(F)F)c2)cc1Oc1nc(-c2ccncc2)nc2c1ncn2C [I-m-3]	1050 nM	447 nM
Cc1ccc(Oc2nc(-c3cccc(Cl)c3)nc3c2ncn3C)cc1C(=O)Nc1ccc(CN2CCN(C)CC2)c(C(F)(F)F)c1 [I-n-5]	1510 nM	1540 nM
Cc1ccc(Oc2nc(-c3ccc(Cl)cc3)nc3c2ncn3C)cc1C(=O)Nc1ccc(CN2CCN(C)CC2)c(C(F)(F)F)c1 [I-n-6]	1380 nM	1780 nM
Cc1ccc(Oc2nc(-c3cccc(O)c3)nc3c2ncn3C)cc1C(=O)Nc1ccc(CN2CCN(C)CC2)c(C(F)(F)F)c1 [I-n-7]	1450 nM	1560 nM
Cc1ccc(Oc2nc(-c3ccc(O)cc3)nc3c2ncn3C)cc1C(=O)Nc1ccc(CN2CCN(C)CC2)c(C(F)(F)F)c1 [I-n-8]	1330 nM	1210 nM
Cc1ccc(Oc2nc(-c3cccc(N)c3)nc3c2ncn3C)cc1C(=O)Nc1ccc(CN2CCN(C)CC2)c(C(F)(F)F)c1 [I-n-9]	1480 nM	1550 nM
Cc1ccc(Oc2nc(-c3ccc(N)cc3)nc3c2ncn3C)cc1C(=O)Nc1ccc(CN2CCN(C)CC2)c(C(F)(F)F)c1 [I-n-10]	1400 nM	1400 nM
Cc1ccc(Oc2nc(-c3ccoc3)nc3c2ncn3C)cc1C(=O)Nc1ccc(CN2CCN(C)CC2)c(C(F)(F)F)c1 [I-n-11]	1960 nM	1200 nM
Cc1ccc(Oc2nc(-c3ccsc3)nc3c2ncn3C)cc1C(=O)Nc1ccc(CN2CCN(C)CC2)c(C(F)(F)F)c1 [I-n-12]	1860 nM	2030 nM
Cc1ccc(Oc2nc(-c3ccncc3)nc3c2ncn3C(C)C)cc1C(=O)Nc1ccc(CN2CCN(C)CC2)c(C(F)(F)F)c1 [I-n-14]	47 nM	163 nM
CN1CCN(Cc2ccc(NC(=O)c3cc(Oc4nc(-c5ccncc5)nc5c4ncn5C)ccc3Cl)cc2C(F)(F)F)CC1 [I-o-2]	3.15 nM	20.6 nM
CN1CCN(Cc2ccc(NC(=O)c3cc(Oc4nc(-c5cccc(O)c5)nc5c4ncn5C)ccc3Cl)cc2C(F)(F)F)CC1 [I-o-6]	1360 nM	1290 nM
CN1CCN(Cc2ccc(NC(=O)c3cc(Oc4nc(-c5ccoc5)nc5c4ncn5C)ccc3Cl)cc2C(F)(F)F)CC1 [I-o-10]	1910 nM	1370 nM
Cc1ccc(C(=O)Nc2cccc(C(F)(F)F)c2)cc1Oc1nc(-c2cccnc2)nc2c1cnn2C [II-e-1]	2240 nM	1970 nM
CN1CCN(Cc2ccc(C(=O)Nc3cccc(Oc4nc(-c5cccnc5)nc5c4cnn5C)c3)cc2C(F)(F)F)CC1 [II-h-1]	953 nM	1110 nM
CN1CCN(Cc2ccc(C(=O)Nc3cccc(Oc4nc(-c5ccncc5)nc5c4cnn5C)c3)cc2C(F)(F)F)CC1 [II-h-2]	106 nM	140 nM
Cc1ccc(NC(=O)c2ccc(CN3CCN(C)CC3)c(C(F)(F)F)c2)cc1Oc1nc(-c2cccnc2)nc2c1cnn2C [II-i-1]	411 nM	477 nM
Cc1ccc(NC(=O)c2ccc(CN3CCN(C)CC3)c(C(F)(F)F)c2)cc1Oc1nc(-c2ccncc2)nc2c1cnn2C [II-i-2]	469 nM	617 nM
Cc1ccc(NC(=O)c2ccc(CN3CCN(C)CC3)c(C(F)(F)F)c2)cc1Oc1ncnc2c1cnn2C [II-i-3]	1040 nM	881 nM
Cc1ccc(Oc2nc(-c3ccncc3)nc3c2cnn3C)cc1NC(=O)c1ccc(CN2CCN(C)CC2)c(C(F)(F)F)c1 [II-j-2]	–	13.1 nM
CCn1ncc2c(Oc3cc(C(=O)Nc4ccc(CN5CCN(C)CC5)c(C(F)(F)F)c4)ccc3C)nc(-c3ccncc3)nc21 [II-m-22]	–	> 10000 nM
CC(=O)NC1CCN(c2ccc(NC(=O)c3ccc(C)c(Oc4nc(-c5cccnc5)nc5ccn(C)c45)c3)cc2C(F)(F)F)CC1 [III-v-2]	–	< 4 nM
CCC(=O)NC1CCN(c2ccc(NC(=O)c3ccc(C)c(Oc4nc(-c5cccnc5)nc5ccn(C)c45)c3)cc2C(F)(F)F)CC1 [III-v-7]	–	148000 nM
CCC(=O)NCC1CCN(c2ccc(NC(=O)c3ccc(C)c(Oc4nc(-c5ccncc5)nc5cc[nH]c45)c3)cc2C(F)(F)F)CC1 [III-v-13]	–	18300 nM

The remaining lines, values ahead:

GI50 (KIF5B-RET-BaF3)	GI50 (CCDC6-RET-BaF3)	SMILES
2290 nM	4930 nM	CC(C)n1cnc2c(Oc3cccc(NC(=O)c4ccc(CN5CCN(C)CC5)c(C(F)(F)F)c4)c3)nc(-c3ccncc3)nc21 [I-h-1]
2.74 nM	0.741 nM	Cc1ccc(Oc2nc(-c3ccncc3)nc3c2ncn3C)cc1NC(=O)c1ccc(CN2CCN(C)CC2)c(C(F)(F)F)c1 [I-j-1]
2370 nM	2700 nM	Cc1ccc(Oc2nc(-c3ccccc3)nc3c2ncn3C)cc1C(=O)Nc1ccc(CN2CCN(C)CC2)c(C(F)(F)F)c1 [I-n-4]
4850 nM	3010 nM	Cc1ccc(Oc2ncnc3c2ncn3C)cc1C(=O)Nc1ccc(CN2CCN(C)CC2)c(C(F)(F)F)c1 [I-n-13]
1390 nM	1470 nM	CN1CCN(Cc2ccc(NC(=O)c3cc(Oc4nc(-c5cccnc5)nc5c4ncn5C)ccc3Cl)cc2C(F)(F)F)CC1 [I-o-1]
1380 nM	1380 nM	CN1CCN(Cc2ccc(NC(=O)c3cc(Oc4nc(-c5ccccc5)nc5c4ncn5C)ccc3Cl)cc2C(F)(F)F)CC1 [I-o-3]
1410 nM	1400 nM	CN1CCN(Cc2ccc(NC(=O)c3cc(Oc4nc(-c5cccc(Cl)c5)nc5c4ncn5C)ccc3Cl)cc2C(F)(F)F)CC1 [I-o-4]
1390 nM	1320 nM	CN1CCN(Cc2ccc(NC(=O)c3cc(Oc4nc(-c5ccc(Cl)cc5)nc5c4ncn5C)ccc3Cl)cc2C(F)(F)F)CC1 [I-o-5]
1210 nM	903 nM	CN1CCN(Cc2ccc(NC(=O)c3cc(Oc4nc(-c5ccc(O)cc5)nc5c4ncn5C)ccc3Cl)cc2C(F)(F)F)CC1 [I-o-7]
1490 nM	1590 nM	CN1CCN(Cc2ccc(NC(=O)c3cc(Oc4nc(-c5cccc(N)c5)nc5c4ncn5C)ccc3Cl)cc2C(F)(F)F)CC1 [I-o-8]
1500 nM	1390 nM	CN1CCN(Cc2ccc(NC(=O)c3cc(Oc4nc(-c5ccc(N)cc5)nc5c4ncn5C)ccc3Cl)cc2C(F)(F)F)CC1 [I-o-9]
1560 nM	1680 nM	CN1CCN(Cc2ccc(NC(=O)c3cc(Oc4nc(-c5ccsc5)nc5c4ncn5C)ccc3Cl)cc2C(F)(F)F)CC1 [I-o-11]
154 nM	55.2 nM	CC(C)n1cnc2c(Oc3ccc(Cl)c(C(=O)Nc4ccc(CN5CCN(C)CC5)c(C(F)(F)F)c4)c3)nc(-c3ccncc3)nc21 [I-o-12]
4420 nM	4170 nM	Cc1ccc(Oc2nc(-c3cccnc3)nc3c2cnn3C)cc1NC(=O)c1ccc(CN2CCN(C)CC2)c(C(F)(F)F)c1 [II-j-1]
3210 nM	1420 nM	Cc1ccc(Oc2nc(-c3ccoc3)nc3c2cnn3C)cc1NC(=O)c1ccc(CN2CCN(C)CC2)c(C(F)(F)F)c1 [II-j-3]
2360 nM	2070 nM	Cc1ccc(Oc2nc(-c3ccsc3)nc3c2cnn3C)cc1NC(=O)c1ccc(CN2CCN(C)CC2)c(C(F)(F)F)c1 [II-j-4]
–	23800 nM	CC(=O)NCC1CCN(c2ccc(NC(=O)c3ccc(C)c(Oc4nc(-c5ccncc5)nc5ccn(C)c45)c3)cc2C(F)(F)F)CC1 [III-v-3]
–	< 4 nM	CCC(=O)NCC1CCN(c2ccc(NC(=O)c3ccc(C)c(Oc4nc(-c5cccnc5)nc5ccn(C)c45)c3)cc2C(F)(F)F)CC1 [III-v-4]
–	< 4 nM	CCC(=O)NCC1CCN(c2ccc(NC(=O)c3ccc(C)c(Oc4nc(-c5cccnc5)nc5ccn(C)c45)c3)cc2C(F)(F)F)CC1 [III-v-5]
–	< 4 nM	CC(=O)NCC1CCN(c2ccc(NC(=O)c3ccc(C)c(Oc4nc(-c5cccnc5)nc5ccn(C)c45)c3)cc2C(F)(F)F)CC1 [III-v-6]
–	< 4 nM	CCS(=O)(=O)NC1CCN(c2ccc(NC(=O)c3ccc(C)c(Oc4nc(-c5cccnc5)nc5ccn(C)c45)c3)cc2C(F)(F)F)CC1 [III-v-10]
